Data taken from patent US6667322B2, “Antidepressant chroman and chromene derivatives of 3-(1,2,3,6-tetrahydro-4-pyridinyl)-1H-indole” (Wyeth, priority 2001, dated 2003).
Structures can show the parent of a compound that is named as a salt. Where two headings read alike, the source gives them in different places.

Columns and labels:
[1] = target: T1, serotonin transporter (Rattus norvegicus, UniProt P31652); assay: 3H-paroxetine displacement from rat frontal cortical membranes (serotonin transporter affinity); type: binding
T1 construct: displace ^3H-paroxetine from male rat frontal cortical membranes; from tissue; host or cells: male rat frontal cortex membranes
T1 sequence (P31652 whole entry): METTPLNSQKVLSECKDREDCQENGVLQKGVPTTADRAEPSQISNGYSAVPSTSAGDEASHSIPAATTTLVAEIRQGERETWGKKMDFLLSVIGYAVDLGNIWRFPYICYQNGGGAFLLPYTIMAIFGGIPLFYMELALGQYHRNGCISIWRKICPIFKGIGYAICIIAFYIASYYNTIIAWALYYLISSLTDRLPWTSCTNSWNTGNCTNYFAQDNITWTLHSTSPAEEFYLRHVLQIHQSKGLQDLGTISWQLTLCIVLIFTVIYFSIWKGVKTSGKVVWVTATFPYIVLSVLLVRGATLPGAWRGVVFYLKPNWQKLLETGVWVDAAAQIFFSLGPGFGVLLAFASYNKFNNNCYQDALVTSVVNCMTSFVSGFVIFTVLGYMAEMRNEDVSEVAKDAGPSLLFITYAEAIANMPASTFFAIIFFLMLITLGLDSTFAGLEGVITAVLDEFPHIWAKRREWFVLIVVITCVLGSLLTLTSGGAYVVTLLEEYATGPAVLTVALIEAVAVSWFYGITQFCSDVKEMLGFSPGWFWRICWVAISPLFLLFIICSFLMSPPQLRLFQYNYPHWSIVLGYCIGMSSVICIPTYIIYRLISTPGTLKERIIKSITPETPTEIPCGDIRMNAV

[2] = target: T2, human 5-HT1A receptors (Homo sapiens, UniProt P08908); assay: [3H] 8-OHDPAT displacement from 5-HT1A receptor in transfected CHO cells; type: binding
T2 construct: expressed in transfected cells; host or cells: CHO cells
T2 sequence (P08908 1-422): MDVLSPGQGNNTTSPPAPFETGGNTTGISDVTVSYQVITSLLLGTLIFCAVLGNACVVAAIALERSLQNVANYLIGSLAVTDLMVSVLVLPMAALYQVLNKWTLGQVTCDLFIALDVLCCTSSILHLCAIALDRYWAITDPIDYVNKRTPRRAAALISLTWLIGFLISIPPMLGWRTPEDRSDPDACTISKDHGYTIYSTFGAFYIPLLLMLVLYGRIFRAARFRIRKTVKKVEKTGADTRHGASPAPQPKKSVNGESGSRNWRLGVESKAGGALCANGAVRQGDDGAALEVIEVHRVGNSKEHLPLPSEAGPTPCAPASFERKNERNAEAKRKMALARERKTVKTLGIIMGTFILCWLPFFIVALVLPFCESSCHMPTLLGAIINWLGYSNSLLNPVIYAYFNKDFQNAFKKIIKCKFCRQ
From the text: High affinity for the serotonin 5-HT1A receptor was established by testing the claimed compound's ability to displace [^3H] 8-OHDPAT (dipropylamino-tetralin) from the 5-HT1A serotonin receptor following a modification of the procedure of Hall et al., J. Neurochem. 44, 1685 (1985) which utilizes CHO cells stably transfected with human 5-HT1A receptors.

[3] = target: T3, cloned human 5-HT1A receptors (Homo sapiens, UniProt P08908); assay: 35S-GTPγS binding assay, agonist activity at 5-HT1A receptors; type: biochemical; conditions: for Emax: read-out: 5-HT1A Function (Emax); for EC50: 35S-GTPγS binding to membranes containing cloned human 5-HT1A receptors, read-out: 5-HT1A Function EC50
T3 construct: expressed in transfected cells
T3 sequence (P08908 1-422): T2 sequence (P08908 1-422)
Method: Agonist activity at 5-HT1A receptors was established by using a ^35S-GTPγbinding assay similar to that used by Lazareno and Birdsall (Br. J. Pharmacol. 109: 1120, 1993), in which the test compound's ability to affect the binding of ^35S-GTPγS to membranes containing cloned human 5-HT1A receptors was determined. Agonists produce an increase in binding whereas antagonists produce no increase but rather reverse the effects of the standard agonist 8-OHDPAT. The test compound's maximum stimulatory effect is represented as the Emax, while its potency is defined by the EC50.

[4] = displacement of 3H-paroxetine, male rat frontal cortical membranes, read-out: 5-HT Transporter Affinity KI
[5] = displacement of [3H] 8-OHDPAT, CHO cells stably transfected with human 5-HT1A receptors, read-out: 5-HT1A Receptor Affinity KI

Row | SMILES | melting point | Ki [1, 4] [nM] | Ki [2, 5] [nM] | Emax [3] [%] | Ki [1] [nM] | EC50 [3] [nM] | Ki [2] [nM] | 5-HT1A Function (Emax) ([3]; maximum stimulatory effect, 35S-GTPγS binding, cloned human 5-HT1A receptors, value in parentheses)
1 | Fc1ccc2[nH]c(CC3CCN(CC4CCc5ccccc5O4)CC3)cc2c1 (stereo not shown) (as salt: oxalate) (hydrate or solvate) [Example 1, 2-{[1-(3,4-Dihydro-2H-chromen-2-ylmethyl)-4-piperidinyl]methyl}-5-fluoro-1H-indole] | 187 to 190 °C | – | – | – | – | – | – | –
2 | Fc1ccc2[nH]c(CC3CCN(CC4CCc5ccccc5O4)CC3)cc2c1 (stereo not shown) [Example 1, 2-{[1-(3,4-Dihydro-2H-chromen-2-ylmethyl)-4-piperidinyl]methyl}-5-fluoro-1H-indole] | – | 0.13 | 265 | – | – | – | – | –
3 | C1=C(c2c[nH]c3ccccc23)CCN(CC2CCc3ccccc3O2)C1 (stereo not shown) [Example 2, 3-[1-(3,4-Dihydro-2H-chromen-2-ylmethyl)-1,2,3,6-tetrahydro-4-pyridinyl]-1H-indole] | 171 to 173 °C | – | 281 | 50 | 1.18 | – | – | –
4 | Fc1ccc2[nH]cc(C3=CCN(CC4CCc5ccccc5O4)CC3)c2c1 (stereo not shown) [Example 3, 3-[1-(3,4-Dihydro-2H-chromen-2-ylmethyl)-1,2,3,6-tetrahydro-4-pyridinyl]-5-fluoro-1H-indole] | 172 to 175 °C | – | 299 | 83 | 4.84 | 398 | – | –
5 | COc1cccc2c1OC(CN1CC=C(c3c[nH]c4ccc(F)cc34)CC1)CC2 (stereo not shown) [Example 4, 5-Fluoro-3-(1-{[8-methoxy-3,4-dihydro-2H-chromen-2-yl]methyl}-1,2,3,6-tetrahydro-4-pyridinyl)-1H-indole] | 177 to 180 °C (dec.) | – | – | 92 | 9.5 | 283 | 34.4 | –
6 | COc1cccc2c1OC(CN1CC=C(c3c[nH]c4ccccc34)CC1)CC2 (stereo not shown) [Example 5, (3-(1-{8-Methoxy-3,4-dihydro-2H-chromen-2-yl]methyl}-1,2,3,6-tetrahydro-4-pyridinyl)-1H-indole] | – | 10 | 39 | – | – | 189 | – | 79.0
7 | Fc1ccc2c(C3=CCN(CC4CCc5ccccc5O4)CC3)c[nH]c2c1 (stereo not shown) [Example 6, 3-[1-(3,4-Dihydro-2H-chromen-2-ylmethyl)-1 2,3,6-tetrahydro-4-pyridinyl]-6-fluoro-1H-indole] | 160 to 161 °C | – | – | 100 | 0.34 | 2480 | – | –
8 | COc1cccc2c1OC(CN1CC=C(c3c[nH]c4cc(F)ccc34)CC1)CC2 (stereo not shown) [Example 7, 6-Fluoro-3-(1-{[8-methoxy-3,4-dihydro-2H-chromen-2-yl]methyl}-1,2,3,6-tetrahydro-4-pyridinyl)-1H-indole] | > 170 °C (dec.) | – | – | 64 | 8.5 | 854 | 45 | –
9 | COc1cccc2c1OC(CN1CC=C(c3c[nH]c4ccc(F)cc34)CC1)C=C2 (stereo not shown) [Example 8, 5-Fluoro-3-(1-{[8-methoxy-2H-chromen-2-yl]methyl}-1,2,3,6-tetrahydro-4-pyridinyl)-1H-indole] | 189 to 191 °C (dec.) | – | 143 | 60 | 20 | 1710 | – | –
10 | COc1cccc2c1OC(CN1CC=C(c3c[nH]c4ccccc34)CC1)C=C2 (stereo not shown) [Example 9, 3-(1-{[8-Methoxy-2H-chromen-2-yl]methyl}-1,2,3,6-tetrahydro-4-pyridinyl)-1H-indole] | 198 to 200 °C (dec.) | – | – | 67 | 9.5 | 208 | 96.5 | –
